Measured values: ChEMBL document CHEMBL4715789, “Identification of a Potential Antimalarial Drug Candidate from a Series of 2-Aminopyrazines by Optimization of Aqueous Solubility and Potency across the Parasite Life Cycle” (J Med Chem, 2016)
≈ marks a conversion by molar mass, not a printed value.

Experiments:
[1] = Metabolic stability in mouse liver microsomes assessed as compound remaining at 0.1 uM measured after 30 mins in presence of cofactor NADPH by LC-MS/MS analysis; type: ADME, Microsome; settings: read-out: Stabilty
[2] = Metabolic stability in rat liver microsomes assessed as compound remaining at 0.1 uM measured after 30 mins in presence of cofactor NADPH by LC-MS/MS analysis; type: ADME, Microsome; settings: read-out: Stabilty
[3] = Metabolic stability in human liver microsomes assessed as compound remaining at 0.1 uM measured after 30 mins in presence of cofactor NADPH by LC-MS/MS analysis; type: ADME, Microsome; settings: read-out: Stabilty
[4] = Aqueous solubility of compound in pH 2 0.01M HCl incubated for 2 hrs under shaking condition by shake-flask method based HPLC-DAD analysis; type: physicochemical
Plasmodium falciparum [5] = experiment: microbe, parasite or virus in culture; settings: NF54, Erythrocyte
Description: Antiplasmodial activity against multidrug-sensitive Plasmodium falciparum NF54 infected in human erythrocytes assessed as reduction in [3H]hypoxanthine incorporation preincubated for 48 hrs followed by [3H]hypoxanthine addition and measured after 24 hrs by liquid scintillation counting method

Plasmodium falciparum [6] = experiment: microbe, parasite or virus in culture; settings: K1, Erythrocyte
Description: Antiplasmodial activity against multidrug-resistant Plasmodium falciparum K1 infected in erythrocytes assessed as reduction in [3H]hypoxanthine incorporation preincubated for 48 hrs followed by [3H]hypoxanthine addition and measured after 24 hrs by liquid scintillation counting method

[7] = Aqueous solubility of compound in pH 6.5 PBS incubated for 2 hrs under shaking condition by shake-flask method based HPLC-DAD analysis; type: physicochemical
Plasmodium berghei [8] = experiment: Antiplasmodial activity against Plasmodium berghei ANKA infected in NMRI mouse model assessed as mean survival days at 3 mg/kg, po qd for 4 consecutive day; type: functional; settings: time 4 day
Plasmodium berghei [9] = experiment: Antiplasmodial activity against Plasmodium berghei ANKA infected in NMRI mouse assessed as reduction in parasitemia at 3 mg/kg, po qd for 4 consecutive days measured at day 7 post infection by flow cytometry analysis; type: functional; set-up: scale not given: the % may be the effect or the level left; settings: time 4 day
[10] = target: Voltage-gated inwardly rectifying potassium channel KCNH2 (Homo sapiens, UniProt Q12809); experiment: Inhibition of human ERG by IonWorks patch clamp electrophysiology method
Voltage-gated inwardly rectifying potassium channel KCNH2, sequence (Q12809 whole entry): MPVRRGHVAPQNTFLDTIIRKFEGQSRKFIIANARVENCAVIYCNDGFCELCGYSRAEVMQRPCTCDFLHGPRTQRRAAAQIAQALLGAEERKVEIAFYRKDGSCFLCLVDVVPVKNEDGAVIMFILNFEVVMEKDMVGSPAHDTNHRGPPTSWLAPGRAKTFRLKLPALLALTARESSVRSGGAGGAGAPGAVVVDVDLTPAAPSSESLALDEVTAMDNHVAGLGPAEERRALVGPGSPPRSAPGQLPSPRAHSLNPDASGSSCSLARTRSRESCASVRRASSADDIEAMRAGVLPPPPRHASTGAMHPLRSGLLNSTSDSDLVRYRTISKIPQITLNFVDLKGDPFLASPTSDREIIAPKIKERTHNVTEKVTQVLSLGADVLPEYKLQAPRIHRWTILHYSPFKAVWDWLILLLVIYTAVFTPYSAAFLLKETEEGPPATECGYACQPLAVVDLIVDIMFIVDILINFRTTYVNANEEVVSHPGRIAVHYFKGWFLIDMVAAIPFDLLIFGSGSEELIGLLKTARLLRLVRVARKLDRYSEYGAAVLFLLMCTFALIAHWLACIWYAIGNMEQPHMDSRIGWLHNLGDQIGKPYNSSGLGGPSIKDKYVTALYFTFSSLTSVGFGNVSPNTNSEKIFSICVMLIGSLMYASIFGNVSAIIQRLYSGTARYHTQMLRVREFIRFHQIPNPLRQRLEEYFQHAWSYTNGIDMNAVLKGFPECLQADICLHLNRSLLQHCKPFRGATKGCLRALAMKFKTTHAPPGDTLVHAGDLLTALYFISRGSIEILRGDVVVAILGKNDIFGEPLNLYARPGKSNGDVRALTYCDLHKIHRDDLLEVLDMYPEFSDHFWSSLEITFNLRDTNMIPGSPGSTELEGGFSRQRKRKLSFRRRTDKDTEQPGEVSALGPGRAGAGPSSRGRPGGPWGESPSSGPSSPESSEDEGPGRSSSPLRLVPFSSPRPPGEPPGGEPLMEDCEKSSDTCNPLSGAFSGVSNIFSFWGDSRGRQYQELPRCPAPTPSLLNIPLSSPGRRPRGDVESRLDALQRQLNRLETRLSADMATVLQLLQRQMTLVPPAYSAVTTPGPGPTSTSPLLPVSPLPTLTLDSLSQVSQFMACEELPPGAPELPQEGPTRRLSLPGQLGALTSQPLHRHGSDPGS

hERG (KCNH2) = experiment: Selectivity ratio of IC50 for inhibition of human ERG by IonWorks patch clamp electrophysiology method to IC50 for antiplasmodial activity against multidrug-sensitive Plasmodium falciparum NF54 infected in human erythrocytes; type: toxicity, cell-based; settings: read-out: Ratio IC50
Plasmodium berghei [11] = experiment: Antiplasmodial activity against Plasmodium berghei ANKA infected in NMRI mouse model assessed as mean survival days at 10 mg/kg, po qd for 4 consecutive day; type: functional; settings: time 4 day
Plasmodium berghei [12] = experiment: Antiplasmodial activity against Plasmodium berghei ANKA infected in NMRI mouse assessed as reduction in parasitemia at 10 mg/kg, po qd for 4 consecutive days measured at day 7 post infection by flow cytometry analysis; type: functional; set-up: scale not given: the % may be the effect or the level left; settings: time 4 day
[13] = Selectivity index, ratio of IC50 for cytotoxicity against CHO cells by MTT assay to IC50 for antiplasmodial activity against multidrug-sensitive Plasmodium falciparum NF54 infected in human erythrocytes; type: toxicity, cell-based; settings: Chinese hamster, read-out: Ratio IC50

| Structure (SMILES) | remaining at 0.5 h, 0.1 µM [1] [%] | remaining at 0.5 h, 0.1 µM [2] [%] | remaining at 0.5 h, 0.1 µM [3] [%] | solubility thermodynamic at 2 h [4] [µM] | IC50 (Plasmodium falciparum [5]) [nM] | IC50 (Plasmodium falciparum [6]) [nM] | solubility thermodynamic at 2 h [7] [µM] | MSD (Plasmodium berghei [8]) [days] | Activity (Plasmodium berghei [9]) [%] | IC50 [10] [nM] | selectivity ratio (hERG (KCNH2)) | MSD (Plasmodium berghei [11]) [days] | Activity (Plasmodium berghei [12]) [%] | selectivity ratio [13] |
| --- | --- | --- | --- | --- | --- | --- | --- | --- | --- | --- | --- | --- | --- | --- |
| N#Cc1ccc(-c2cnc(N)c(-c3ccc(N)nc3)n2)cc1 | > 90 | > 90 | > 90 | 208 (≈ 60 µg/mL) | 222 | 149 | < 5 | – | – | – | – | – | – | – |
| Nc1ccc(-c2cnc(N)c(-c3ccc(N)nc3)n2)cn1 | > 90 | > 90 | > 90 | – | 203 | 143 | – | – | – | – | – | – | – | – |
| Nc1ncc(-c2ccc(C(=O)N3CCC(N)C3)cc2)nc1-c1ccc(C(F)(F)F)cc1 (centres undefined) | – | – | – | 165 (≈ 70.5 µg/mL) | 19 | 12 | 102 (≈ 43.6 µg/mL) | 7 | 71 | 10000 | 526 | – | – | – |
| CC(C)(C)N1CCN(C(=O)c2ccc(-c3cnc(N)c(-c4ccc(C(F)(F)F)cc4)n3)cc2)CC1 | – | – | – | 200 (≈ 96.7 µg/mL) | 17 | 11 | 95 (≈ 45.9 µg/mL) | – | – | 2000 | – | – | – | – |
| CNC(=O)c1ccc(-c2nc(-c3ccc(C(N)=O)cc3)cnc2N)cc1 | – | – | – | 186 (≈ 64.6 µg/mL) | 52 | 52 | 178 (≈ 61.8 µg/mL) | – | – | – | – | – | – | – |
| CN1CCCN(C(=O)c2ccc(-c3cnc(N)c(-c4ccc(C(F)(F)F)nc4)n3)cc2)CC1 | > 90 | > 90 | > 90 | 200 (≈ 91.3 µg/mL) | 15 | 9.9 | 85 (≈ 38.8 µg/mL) | 12 | – | – | – | – | – | – |
| CN1CCN(C(=O)c2ccc(-c3cnc(N)c(-c4ccc(C(F)(F)F)nc4)n3)cc2)CC1 | > 90 | > 90 | > 90 | 200 (≈ 88.5 µg/mL) | 9.9 | 9.9 | 182 (≈ 80.5 µg/mL) | 7 | 81 | – | – | 8 | – | – |
| CS(=O)(=O)c1ccc(-c2cnc(N)c(-c3ccc(N)nc3)n2)cc1 | > 90 | > 90 | > 90 | 206 (≈ 70.3 µg/mL) | 38 | 27 | 149 (≈ 50.9 µg/mL) | – | – | – | – | – | – | – |
| Nc1ccc(-c2cnc(N)c(-c3ccc(C(F)(F)F)nc3)n2)cn1 | > 90 | > 90 | > 90 | 199 (≈ 66.1 µg/mL) | – | – | 34 (≈ 11.3 µg/mL) | – | – | – | – | – | – | – |
| Nc1ncc(-c2ccc(C(F)(F)F)nc2)nc1-c1ccc(C(F)(F)F)nc1 | > 90 | > 90 | > 90 | – | – | – | – | – | – | – | – | – | – | – |
| NC(=O)c1ccc(-c2cnc(N)c(-c3ccc(C(N)=O)cc3)n2)cc1 | – | – | – | – | 25 | 21 | – | – | – | – | – | – | – | – |
| Nc1ncc(-c2ccc(C(=O)N3CC[C@H](O)C3)cc2)nc1-c1ccc(C(F)(F)F)cc1 | > 90 | > 90 | > 90 | 93 (≈ 39.8 µg/mL) | 6 | – | 68 (≈ 29.1 µg/mL) | 8 | – | – | – | 16 | 100 | – |
| NC(=O)c1ccc(-c2cnc(N)c(-c3ccc(C(F)(F)F)nc3)n2)cn1 | > 90 | > 90 | > 90 | 7 (≈ 2.52 µg/mL) | 5.2 | 7.2 | 5 (≈ 1.8 µg/mL) | 7 | 97.5 | – | – | 14 | 99.9 | > 1800 |
| Nc1ccc(-c2nc(-c3ccc(S(=O)(=O)C4CC4)cc3)cnc2N)cn1 | > 90 | > 90 | > 90 | 212 (≈ 77.9 µg/mL) | 38 | 44 | 13 (≈ 4.78 µg/mL) | – | – | – | – | – | – | – |
| Nc1ncc(-c2ccc(C(=O)N3CCC(N)C3)cc2)nc1-c1ccc(C(F)(F)F)nc1 (centres undefined) | – | – | – | 200 (≈ 85.7 µg/mL) | 40 | 26 | 116 (≈ 49.7 µg/mL) | 7 | 47 | – | – | – | – | – |
| Nc1ncc(-c2ccc(C(=O)N3CCCNCC3)cc2)nc1-c1ccc(C(F)(F)F)cc1 | – | – | – | 190 (≈ 83.9 µg/mL) | 7.7 | 6.3 | 128 (≈ 56.5 µg/mL) | 11 | 88 | – | – | – | – | – |
